Test results reported in PMC12598616, “Design and optimization of caspase-1-responsive fluorescent probes for pyroptosis imaging and anti-pyroptosis drug screening” (Chemical Science, 2025).

Experiments:
[1] = test system: Cas-1 in THP-1 cells; assay: Imaging and flow cytometry in Cas-1 siRNA knockdown THP-1 cells; assay type: cell-based; conditions: caspase-1 siRNA, LPS 1 μg/mL and Nig 10 μM
Description: Cytotoxicity assay (CCK-8)
The cytotoxicity of FPy1 and YPy1 to THP-1 was evaluated by cell counting kit-8 (CCK-8). Briefly, the THP-1 cells were seeded in 96-well plates (5000 cells/well) and cultured at 37 °C for 24 hours. Various concentrations of FPy1 or YPy1 (0, 2.5, 5, 10, 20, 30, 40, 50 μM) in RPMI 1640 medium were added, and the cells were kept incubation for 12 hours. Then, the cells were washed with PBS and incubated in the 100 μL fresh medium with 10 μL CCK8 dye for an additional 2 hours. The absorbance was measured at 450 nm using a Tecan Infinite M1000 Multi-function microplate reader, and cell viability was calculated using the formula:
Cell viability (%) = [(OD test-ODblank)/(ODcontrol-ODblank)] ×100%
Intracellular imaging with FPy1 in THP-1 cells
THP-1 cells were seeded in dishes and cultured overnight. […] The fluorescence imaging was performed under the excitation at 514 nm with signal collection in the range […]
for 4 hours, the cells were further treated with Nig (10 μM) for 2 hours. […] The distribution of FPy1 was analyzed by collecting organelle-specific dye fluorescence at 495-525 nm with 488 nm excitation, while simultaneously detecting FPy1 fluorescence at 530-610 nm with 514 nm excitation. […]
Nucleus pulposus cells were isolated from discs and resuspended in 1mL DMEM/F12 medium containing 10 μM ITS-A. A total of […] were counted and transferred into centrifuge tubes. […]

[2] = test system: Cas-1 in NP cell spheroids; assay: Imaging in nucleus pulposus 3D cell spheroids; assay type: cell-based, rat; conditions: H2O2 2 mM 30, 60, 90 min; FPy1 5 μM; compared with 2D cells
Excerpt: (§1) With advancing age, the prevalence of degenerative bone and joint disorders (DBJDs), such as intervertebral disc degeneration (IVDD) and osteoarthritis (OA), increases markedly among middle-aged and elderly individuals.[30] Chronic inflammation has been identified as the underlying cause of DBJDs. In particular, inflammasome-mediated pyroptosis has been recognized as a primary contributor to sustained inflammatory responses.[31] Consequently, pyroptosis-associated biomarkers represent promising indicators for the diagnosis and monitoring of DBJDs. IVDD, a chronic degenerative condition closely related to natural aging, has become one of the leading causes of disability worldwide.[32] […] The imaging results indicated a positive correlation between fluorescence intensity and H2O2-stimulation time (Fig. 4b). […] Encouraged by the promising imaging results of FPy1 in NP cells and cell spheroids, we further assessed its capability for imaging pytoptosis in vivo. […] Following intradiscal injection of FPy1, the fluorescence images of the tail modeling site were obtained from the dorsal aspect. […] Histological scoring result corroborated these findings, reflecting the same trends as with fluorescence imaging observed using FPy1 (Fig. S13b). […]
(§2) The cytotoxicity of FPy1 and YPy1 to THP-1 was evaluated by cell counting kit-8 (CCK-8). […]

[3] = test system: Cas-1 in primary NP cells; assay: Intracellular imaging in nucleus pulposus cells; assay type: cell-based, rat; conditions: H2O2 2 mM 30, 60, 90 min; FPy1 5 μM 1 h
Excerpt: as §1, §2

Substance: –FLTDG– [FPy1, RhoB donor, hNR quencher]
- fluorescence intensity in Si-Casp1 group (flow cytometry) [1]: lower than that in the Si-Scramble group
- intracellular fluorescence intensity in Si-Casp1 group (confocal) ([1]; FPy1 5 μM): significantly lower than that in the Si-Scramble group
- fluorescence enhancement in NP spheroids [2]: the fluorescence enhancement in the spheroids was more pronounced
- intracellular fluorescence intensity in NP cells [3]: increased with the duration of H2O2 stimulation
